Experimental data from patent US9718792B2, “Isoxazoline hydroxamic acid derivatives as LpxC inhibitors” (priority 2014, dated 2017).
≈ marks a conversion by molar mass, not a printed value. Like-named read-outs stand apart in the source and are kept apart here.

Key:
P. aeruginosa LpxC = P. aeruginosa LpxC (Pseudomonas aeruginosa (strain ATCC 15692 / DSM 22644 / CIP 104116 / JCM 14847 / LMG 12228 / 1C / PRS 101 / PAO1), UniProt P47205); assay: P. aeruginosa LpxC Inhibition Assay; assay type: biochemical; conditions: 2 μM substrate, LC-MS/MS
Description: The P. aeruginosa LpxC protein is produced according to the general method of Hyland et al (Journal of Bacteriology 1997 179, 2029-2037: Cloning, expression and purification of UDP-3-O-acyl-GIcNAc deacetylase from Pseudomonas aeruginosa: a metalloamidase of the lipid A biosynthesis pathway). The LC-MS/MS method for quantitation of LpxC product was developed using an Agilent 1200 Capillary HPLC system coupled to an Applied Biosystems MDS Sciex 4000QTRAP mass spectrometer. Both instruments are controlled using the Applied Biosystems MDS Sciex Analyst software. LpxC reaction product (UDP-3-O—(R-3-hydroxyacyl)-glucosamine) was produced by hydrolysis of LpxC substrate catalyzed by P.a. LpxC and purified using reversed phase chromatography on a Phenomenex Luna C18(2) 4.6×50 mm column. An LpxC product calibration curve was generated to evaluate the sensitivity and dynamic range of the LC-MS/MS method. Briefly, compounds are pre-incubated with 1 nM P. aeruginosa LpxC for 30 min. at room temperature. Reactions are initiated by the addition of 2 μM UDP-3-O—(R-3-hydroxydecanoyl)-GIcNAc. Reactions are conducted in a 384-well plate with a total volume of 50 μL in each well containing 50 mM Sodium phosphate pH 7.5, 0.005% Trition X-100 for 20 min at room temperature. After quenching with 1.8% HOAc (5 μL of a 20% HOAc added to each well), reaction mixtures are analyzed using the LC-MS/MS method and peak areas are transformed into product concentration using a LpxC product calibration curve. Total activity (0% inhibition control) is obtained from reactions with no inhibitors and 100% inhibition control is the background using quenched samples before reaction starts. For IC50 determinations, peak areas are converted to percent inhibition in Microsoft Excel. Percent inhibition values are plotted vs. log compound concentration using XLfit. Data is fit to the four-parameter logistic equation using the non-linear regression algorithm in XLfit to return the IC50 and hill slope values.

P. aeruginosa PAO1 = assay: Susceptibility Testing (MIC, broth microdilution); assay type: cell-based, Pseudomonas aeruginosa; conditions: P. aeruginosa PAO1, broth microdilution, 20 hours; for MIC: Pseudomonas aeruginosa, PAO1, 20 h, read-out: PAO1 MIC
Procedure: Bacterial isolates were cultivated from −70° C. frozen stocks by two consecutive overnight passages at 35° C. in ambient air on 5% blood agar (Remel, Lenexa, Kans.). Quality control and P. aeruginosa ATCC 27853) is from the American Type Culture Collection (ATCC; Rockville, Md.) and PAO1 was received from Dr. K. Poole.
Minimal Inhibitory Concentrations (MICs) were determined by the broth microdilution method in accordance with Clinical and Laboratories Institute (CLSI) guidelines. In brief, fresh bacterial overnight cultures were resuspended in sterile saline, adjusted to a 0.5 McFarland turbidity standard and then diluted […] in cation adjusted Mueller-Hinton Broth II (MHB; Remel BBL) to yield a final inoculum of approximately 5×10^5 colony-forming units (CFU)/mL. Two-fold serial dilutions of compounds were prepared in 100% dimethyl sulfoxide (DMSO) at 100-fold the highest final assay concentration; the resulting dilution series of compounds were diluted 1:10 with sterile water. Ten μl of the drug dilution series in 10% DMSO was transferred to microtiter wells and 90 μl of bacterial suspension was inoculated into the wells. All inoculated microdilution trays were incubated in ambient air at […] for 20 hours. Following incubation, assay plates were read in a microtiter plate reader at 600 nm and visually inspected to confirm the MIC endpoint well with the OD value. The lowest concentration of the compound that prevented visible growth was recorded as the MIC. Performance of the assay was monitored by testing ciprofloxacin against laboratory quality control strains in accordance with guidelines of the CLSI.

[1] = 1 nM P. aeruginosa LpxC, read-out: PA LpxC IC50

C[C@@](C[C@H]1CC(c2ccc(-c3ccc(OCCO)cc3)cc2)=NO1)(C(=O)NO)S(C)(=O)=O [Compound 50, (R)—N-hydroxy-3-((R)-3-(4′-(2-hydroxyethoxy)-[1,1′-biphenyl]-4-yl)-4,5-dihydroisoxazol-5-yl)-2-methyl-2-(methylsulfonyl)]
IC50 (P. aeruginosa LpxC; [1]): 0.7 nM
MIC (P. aeruginosa PAO1): 0.18 µg/mL (≈ 0.389 µM)

COCC(C)(O)c1ccc(-c2ccc(C3=NO[C@@H](C[C@](C)(C(=O)NO)S(C)(=O)=O)C3)cc2)cc1 (stereo partly drawn) [Compound 51, (2R)—N-hydroxy-3-((5R)-3-(4′-(2-hydroxy-1-methoxypropan-2-yl)-[1,1′-biphenyl]-4-yl)-4,5-dihydroisoxazol-5-yl)-2-methyl-2-(methylsulfonyl)propanamide]
IC50 (P. aeruginosa LpxC; [1]): 0.8 nM
MIC (P. aeruginosa PAO1): 1.4 µg/mL (≈ 2.85 µM)

COCC1CC(C#Cc2ccc(C3=NO[C@@H](C[C@](C)(C(=O)NO)S(C)(=O)=O)C3)cc2)C1 (stereo partly drawn) [Compound 52, (R)—N-hydroxy-3-((R)-3-(4-((3-(methoxymethyl)cyclobutyl)ethynyl)phenyl)-4,5-dihydroisoxazol-5-yl)-2-methyl-2-(methylsulfonyl)propanamide]
IC50 (P. aeruginosa LpxC; [1]): 0.8 nM
MIC (P. aeruginosa PAO1): 1 µg/mL (≈ 2.23 µM)

COCC1CC(C#Cc2ccc(C3=NO[C@@H](C[C@](C)(C(=O)NO)S(C)(=O)=O)C3)cc2)C1 (stereo partly drawn) [Compound 53, (R)—N-hydroxy-3-((R)-3-(4-((3-(methoxymethyl)cyclobutyl)ethynyl)phenyl)-4,5-dihydroisoxazol-5-yl)-2-methyl-2-(methylsulfonyl)propanamide]
IC50 (P. aeruginosa LpxC; [1]): 0.5 nM
PAO1 MIC (P. aeruginosa PAO1): 0.5 µg/mL

C[C@@](C[C@H]1CC(c2ccc(C#CC3CC(F)C3)cc2)=NO1)(C(=O)NO)S(C)(=O)=O (stereo partly drawn) [Compound 54, (R)-3-((R)-3-(4-((3-fluorocyclobutyl)ethynyl)phenyl)-4,5-dihydroisoxazol-5-yl)-N-hydroxy-2-methyl-2-(methylsulfonyl) propanamide]
IC50 (P. aeruginosa LpxC; [1]): 0.7 nM
MIC (P. aeruginosa PAO1): 1 µg/mL (≈ 2.37 µM)

C[C@@](C[C@H]1CC(c2ccc(C#CC3CC(CC#N)C3)cc2)=NO1)(C(=O)NO)S(C)(=O)=O (stereo partly drawn) [Compound 55, (R)-3-((R)-3-(4-((3-(cyanomethyl)cyclobutyl)ethynyl)phenyl)-4,5-dihydroisoxazol-5-yl)-N-hydroxy-2-methyl-2-(methylsulfonyl)propanamide]
IC50 (P. aeruginosa LpxC; [1]): < 0.5 nM
MIC (P. aeruginosa PAO1): 0.5 µg/mL (≈ 1.13 µM)

C[C@H](O)c1ccc(-c2ccc(C3=NO[C@@H](C[C@](C)(C(=O)NO)S(C)(=O)=O)C3)cc2)cc1 [Compound 56, (R)—N-hydroxy-3-((R)-3-(4′-((S)-1-hydroxyethyl)-[1,1′-biphenyl]-4-yl)-4,5-dihydroisoxazol-5-yl)-2-methyl-2-(methylsulfonyl)]
IC50 (P. aeruginosa LpxC; [1]): 1 nM
MIC (P. aeruginosa PAO1): 0.25 µg/mL (≈ 0.56 µM)

C[C@@](C[C@H]1CC(c2ccc(-c3cccc(CO)c3)cc2)=NO1)(C(=O)NO)S(C)(=O)=O [Compound 57, (R)—N-hydroxy-3-((R)-3-(3′-(hydroxymethyl)-[1,1′-biphenyl]-4-yl)-4,5-dihydroisoxazol-5-yl)-2-methyl-2-(methylsulfonyl)]
IC50 (P. aeruginosa LpxC; [1]): < 0.5 nM
MIC (P. aeruginosa PAO1): 1 µg/mL (≈ 2.31 µM)

C[C@@](C[C@H]1CC(c2ccc(-c3ccc(S(C)(=O)=O)cc3)cc2)=NO1)(C(=O)NO)S(C)(=O)=O [Compound 58, (R)—N-hydroxy-2-methyl-2-(methylsulfonyl)-3-((R)-3-(4′-(methylsulfonyl)-[1,1-biphenyl]-4-yl)-4,5-dihydroisoxazol-5-yl)]
IC50 (P. aeruginosa LpxC; [1]): < 0.5 nM
MIC (P. aeruginosa PAO1): 0.5 µg/mL (≈ 1.04 µM)

COc1ccc(-c2ccc(C3=NO[C@@H](C[C@](C)(C(=O)NO)S(C)(=O)=O)C3)cc2)c(F)c1 [Compound 59, (R)-3-((R)-3-(2′-fluoro-4′-methoxy-[1,1′-biphenyl]-4-yl)-4,5-dihydroisoxazol-5-yl)-N-hydroxy-2-methyl-2-(methylsulfonyl)]
IC50 (P. aeruginosa LpxC; [1]): < 0.5 nM
MIC (P. aeruginosa PAO1): 0.35 µg/mL (≈ 0.777 µM)

COC[C@H](O)Cc1ccc(-c2ccc(C3=NO[C@@H](C[C@](C)(C(=O)NO)S(C)(=O)=O)C3)cc2)cc1 [Compound 60, (R)—N-hydroxy-3-((R)-3-(4′-((R)-2-hydroxy-3-methoxypropyl)-[1,1′-biphenyl]-4-yl)-4,5-dihydroisoxazol-5-yl)-2-methyl-2-(methylsulfonyl)propanamide]
IC50 (P. aeruginosa LpxC; [1]): < 0.5 nM
MIC (P. aeruginosa PAO1): 0.25 µg/mL (≈ 0.51 µM)

CCC#Cc1ccc(C2=NO[C@@H](C[C@](C)(C(=O)NO)S(C)(=O)=O)C2)cc1 [Compound 62, (R)-3-((R)-3-(4-(but-1-yn-1-yl)phenyl)-4,5-dihydroisoxazol-5-yl)-N-hydroxy-2-methyl-2-(methylsulfonyl)propanamide]
IC50 (P. aeruginosa LpxC; [1]): < 0.5 nM
MIC (P. aeruginosa PAO1): 0.33 µg/mL (≈ 0.872 µM)

C[C@@](C[C@H]1CC(c2ccc(-c3ccc(C(F)(F)F)nc3)cc2)=NO1)(C(=O)NO)S(C)(=O)=O [Compound 64, (R)—N-hydroxy-2-methyl-2-(methylsulfonyl)-3-((R)-3-(4-(6-(trifluoromethyl)pyridin-3-yl)phenyl)-4,5-dihydroisoxazol-5-yl)propanamide]
IC50 (P. aeruginosa LpxC; [1]): < 0.5 nM
MIC (P. aeruginosa PAO1): 0.25 µg/mL (≈ 0.53 µM)

C[C@@](C[C@H]1CC(c2ccc(-c3ccc(CO)nc3)cc2)=NO1)(C(=O)NO)S(C)(=O)=O [Compound 65, (R)—N-hydroxy-3-((R)-3-(4-(6-(hydroxymethyl)pyridin-3-yl)phenyl)-4,5-dihydroisoxazol-5-yl)-2-methyl-2-(methylsulfonyl)propanamide]
IC50 (P. aeruginosa LpxC; [1]): < 0.5 nM
MIC (P. aeruginosa PAO1): 1 µg/mL (≈ 2.31 µM)

COc1ccc(-c2ccc(C3=NO[C@@H](C[C@](C)(C(=O)NO)S(C)(=O)=O)C3)cc2)cn1 [Compound 66, (R)—N-hydroxy-3-((R)-3-(4-(6-methoxypyridin-3-yl)phenyl)-4,5-dihydroisoxazol-5-yl)-2-methyl-2-(methylsulfonyl)propanamide]
IC50 (P. aeruginosa LpxC; [1]): < 0.5 nM
MIC (P. aeruginosa PAO1): 0.25 µg/mL (≈ 0.577 µM)

Cc1ccc(-c2ccc(C3=NO[C@@H](C[C@](C)(C(=O)NO)S(C)(=O)=O)C3)cc2)cn1 [Compound 67, (R)—N-hydroxy-2-methyl-3-((R)-3-(4-(6-methylpyridin-3-yl)phenyl)-4,5-dihydroisoxazol-5-yl)-2-(methylsulfonyl) propanamide]
IC50 (P. aeruginosa LpxC; [1]): < 0.5 nM
MIC (P. aeruginosa PAO1): 0.35 µg/mL (≈ 0.838 µM)

Cn1cc(-c2ccc(C3=NO[C@@H](C[C@](C)(C(=O)NO)S(C)(=O)=O)C3)cc2)ccc1=O [Compound 68, (R)—N-hydroxy-2-methyl-3-((R)-3-(4-(1-methyl-6-oxo-1,6-dihydropyridin-3-yl)phenyl)-4,5-dihydroisoxazol-5-yl)-2-(methylsulfonyl)propanamide]
IC50 (P. aeruginosa LpxC; PA LpxC IC50, 1 nM P. aeruginosa LpxC): 2 nM
MIC (P. aeruginosa PAO1): 16 µg/mL (≈ 36.9 µM)

CC(C)(C#N)c1ccc(-c2ccc(C3=NO[C@@H](C[C@](C)(C(=O)NO)S(C)(=O)=O)C3)cc2)cc1 [Compound 69, (R)-3-((R)-3-(4′-(2-cyanopropan-2-yl)-[1,1′-biphenyl]-4-yl)-4,5-dihydroisoxazol-5-yl)-N-hydroxy-2-methyl-2-(methylsulfonyl)propanamide]
IC50 (P. aeruginosa LpxC; [1]): < 0.5 nM
MIC (P. aeruginosa PAO1): 0.71 µg/mL (≈ 1.51 µM)

C[C@@](C[C@H]1CC(c2ccc(-c3ccnc(C(F)(F)F)c3)cc2)=NO1)(C(=O)NO)S(C)(=O)=O [Compound 70, (R)—N-hydroxy-2-methyl-2-(methylsulfonyl)-3-((R)-3-(4-(2-(trifluoromethyl)pyridin-4-yl)phenyl)-4,5-dihydroisoxazol-5-yl)]
IC50 (P. aeruginosa LpxC; [1]): 2 nM
MIC (P. aeruginosa PAO1): 8 µg/mL (≈ 17 µM)

CCc1cc(-c2ccc(C3=NO[C@@H](C[C@](C)(C(=O)NO)S(C)(=O)=O)C3)cc2)ccn1 [Compound 71, (R)-3-((R)-3-(4-(2-ethylpyridin-4-yl)phenyl)-4,5-dihydroisoxazol-5-yl)-N-hydroxy-2-methyl-2-(methylsulfonyl)propanamide]
IC50 (P. aeruginosa LpxC; [1]): 6 nM
MIC (P. aeruginosa PAO1): 0.71 µg/mL (≈ 1.65 µM)
